How the values were obtained:
Dagitaria sanguinales = test: Effectivity testing against weed plants ex. 5.1, Abbott %; type: in vivo, Digitaria sanguinales
Source text: (§1) Each plot was divided by different pre-treatments 1 week before application of the trial treatments: • A) Pre-treatment with glyphosate-isopropylammonium allowing to evaluate in this section the pre-emergence effect against weeds. • B) No pre-treatment, present winter annual weeds are received a post-emergence application.
(§2) 2005, applied on dormant turf in winter
(§3) Effectivity was rated in percent (%) herbicidal effect compared with untreated control according to the method of Abbott according to the formula [(X−Y)/X]100 where X is the absolute level/scoring of the control plants, Y is the level/scoring of the treated plants. 100% efficacy means full control; 0% efficacy means no control of the weed; all ratings above 80% are usually acceptable.

Capsella bursa pastoris = test: Greenhouse herbicidal effect in weed control ex. 6.2, 2- to 3-leaves stage; type: in vivo; conditions: 6 g a.i./ha
Source text: (§4) That means, when applying the combinations according to the invention, herbicidal effects are observed on a harmful plant species which exceed the formal total of the effects of the herbicides present when these are applied by themselves. Alternatively, it is observed in some cases that a lower application rate is required for the herbicide combination in order to achieve the same effect on a harmful plant species in comparison with the individual products.
(§5) When the data observed already exceed the formal total (=E^A) of the data in the experiments with individual applications, they likewise exceed the expected value according to Colby, which is calculated using the formula below and is likewise regarded as an indication of synergism (cf. S. R. Colby; in Weeds 15 (1967) pp. 20 to 22): E=A+B−(A·B/100)
(§6) In this formula: • A=action of active compound (A) in % at an application rate of a g of AS/ha; • B=action of active compound (B) in % at an application rate of b g of AS/ha; • E=expected value of the action of the combination (A)+(B) in % at the combined application rate a+b g of AS/ha.
(§7) The data observed in the experiments show, at suitably low dosages, an action of the combinations which exceeds the expected values according to Colby (=E^C).

Aphanes arvensis = test: Effectivity testing against weed plants ex. 5.1, Abbott %; type: in vivo; conditions: 151 DAT
Source text: as §1, §2, §3

Trifolium repens = test: Effectivity testing against weed plants ex. 5.2, co-formulation/granules in tall fescue turf, early post for the weed, Abbott %; type: in vivo; conditions: 50 g a.i./ha
Source text: (§8) A co-formulation containing a mixture compounds no. […] Granules were applied with a shaker can.
Turf grass species: Festuca arundinacea, variety (tall fescue grass)
Weed species: Trifolium repens
(§9) Location: Sports turf, North Carolina, USA
(§10) Plot size: 1.4 m^2 and 3 replicates per treatment
(§11) Application timing: 27 Mar. 2007, spring application, early post for the weed
(§12) Effectivity was rated in percent (%) herbicidal effect compared with untreated control according to the method of Abbott mentioned above (see 5.1). 100% efficacy means full control; 0% efficacy means no control of the weed; all ratings above 80% are usually acceptable.

[1] = system: Cynodon dactylon (Bermuda grass); test: Phytotoxicity of the turf ex. 5.1, % injury vs untreated; type: in vivo; conditions: 157 DAT
Source text: as §1, §2
Additionally, phytotoxicity of the turf was rated as percent (%) injury compared with untreated control.

Poa annua [2] = test: Effectivity testing against weed plants ex. 5.1, sprayable formulation on dormant Bermuda grass turf, Abbott %; type: in vivo
Source text: as §1, §2, §3

Taraxacum officinalis = test: Greenhouse herbicidal effect in weed control ex. 6.2, 1- to 2-leaves stage; type: in vivo; conditions: 6 g a.i./ha
Source text: as §4, §5, §6, §7

Digitaria sanguinalis = test: Effectivity testing against weed plants ex. 5.3, in bermuda grass turf, Abbott %; type: in vivo
Source text: as §8, §9, §10, §11, §12
(§13) The application and evaluation were performed as described in example 5.2 with the following difference:
(§14) Turf grass species: Cynodon dactylon, variety (bermuda grass)
(§15) Weed species: Digitaria sanguinalis, Poa annua

Poa annua [3] = test: as above; type: in vivo; conditions: 210 DAT
Source text: as §8, §9, §10, §11, §12, §13, §14, §15

Cc1ccc2c(c1)[C@H](Nc1nc(N)nc([C@@H](C)F)n1)[C@@H](C)C2 (stereo in doubt) [(A21)/(A22), indaziflam]
Herbicidal effect (%) on Dagitaria sanguinales, Pre-emergence application after pre-treatment (Dagitaria sanguinales; 25 g a.i./ha, 187 DAT): 100%
Herbicidal effect (%) on Dagitaria sanguinales, Pre-emergence application after pre-treatment (Dagitaria sanguinales; 25 g a.i./ha, 207 DAT): 100%
Herbicidal effect (%) on Dagitaria sanguinales, Pre-emergence application after pre-treatment (Dagitaria sanguinales; 25 g a.i./ha, 234 DAT): 97%
Herbicidal effect (%) on Dagitaria sanguinales, Pre-emergence application after pre-treatment (Dagitaria sanguinales; 25 g a.i./ha, 259 DAT): 99%
Herbicidal effect (%) on Dagitaria sanguinales, Pre-emergence application after pre-treatment (Dagitaria sanguinales; 50 g a.i./ha, 187 DAT): 100%
Herbicidal effect (%) on Dagitaria sanguinales, Pre-emergence application after pre-treatment (Dagitaria sanguinales; 50 g a.i./ha, 207 DAT): 100%
Herbicidal effect (%) on Dagitaria sanguinales, Pre-emergence application after pre-treatment (Dagitaria sanguinales; 50 g a.i./ha, 234 DAT): 100%
Herbicidal effect (%) on Dagitaria sanguinales, Pre-emergence application after pre-treatment (Dagitaria sanguinales; 50 g a.i./ha, 259 DAT): 100%
Herbicidal effect (%) on Dagitaria sanguinales, Pre-emergence application after pre-treatment (Dagitaria sanguinales; 75 g a.i./ha, 187 DAT): 100%
Herbicidal effect (%) on Dagitaria sanguinales, Pre-emergence application after pre-treatment (Dagitaria sanguinales; 75 g a.i./ha, 207 DAT): 100%
Herbicidal effect (%) on Dagitaria sanguinales, Pre-emergence application after pre-treatment (Dagitaria sanguinales; 75 g a.i./ha, 234 DAT): 100%
Herbicidal effect (%) on Dagitaria sanguinales, Pre-emergence application after pre-treatment (Dagitaria sanguinales; 75 g a.i./ha, 259 DAT): 100%
Herbicidal effect (%) 7 DAT on Capsella bursa pastoris (Capsella bursa pastoris): 0%
Herbicidal effect (%) on Aphanes arvensis, Post-emergence application without pre-treatment (Aphanes arvensis; 25 g a.i./ha): 100%
Herbicidal effect (%) on Aphanes arvensis, Pre-emergence application after pre-treatment (Aphanes arvensis; 25 g a.i./ha): 50%
Herbicidal effect (%) on Aphanes arvensis, Post-emergence application without pre-treatment (Aphanes arvensis; 50 g a.i./ha): 33%
Herbicidal effect (%) on Aphanes arvensis, Pre-emergence application after pre-treatment (Aphanes arvensis; 50 g a.i./ha): 100%
Herbicidal effect (%) on Aphanes arvensis, Post-emergence application without pre-treatment (Aphanes arvensis; 75 g a.i./ha): 100%
Herbicidal effect (%) on Aphanes arvensis, Pre-emergence application after pre-treatment (Aphanes arvensis; 75 g a.i./ha): 100%
Herbicidal effect (%) on Trifolium repens (Trifolium repens; 30 DAT): 60%
Herbicidal effect (%) on Trifolium repens (Trifolium repens; 381 DAT): 90%
Phytotoxicity (%) on Turf ([1]; 25 g a.i./ha, section with glyphosate pre-treatment (Table 20)): 0%
Phytotoxicity (%) on Turf ([1]; 25 g a.i./ha, section without pre-treatment (Table 21)): 0%
Phytotoxicity (%) on Turf ([1]; 50 g a.i./ha, section with glyphosate pre-treatment (Table 20)): 0%
Phytotoxicity (%) on Turf ([1]; 50 g a.i./ha, section without pre-treatment (Table 21)): 0%
Phytotoxicity (%) on Turf ([1]; 75 g a.i./ha, section with glyphosate pre-treatment (Table 20)): 0%
Phytotoxicity (%) on Turf ([1]; 75 g a.i./ha, section without pre-treatment (Table 21)): 0%
Herbicidal effect (%) on Poa annua, Post-emergence application without pre-treatment (Poa annua [2]; 25 g a.i./ha, 123 DAT): 27%
Herbicidal effect (%) on Poa annua, Pre-emergence application after pre-treatment (Poa annua [2]; 25 g a.i./ha, 123 DAT): 96%
Herbicidal effect (%) on Poa annua, Post-emergence application without pre-treatment (Poa annua [2]; 25 g a.i./ha, 157 DAT): 77%
Herbicidal effect (%) on Poa annua, Pre-emergence application after pre-treatment (Poa annua [2]; 25 g a.i./ha, 157 DAT): 92%
Herbicidal effect (%) on Poa annua, Post-emergence application without pre-treatment (Poa annua [2]; 25 g a.i./ha, 187 DAT): 98%
Herbicidal effect (%) on Poa annua, Pre-emergence application after pre-treatment (Poa annua [2]; 25 g a.i./ha, 187 DAT): 96%
Herbicidal effect (%) on Poa annua, Post-emergence application without pre-treatment (Poa annua [2]; 50 g a.i./ha, 123 DAT): 77%
Herbicidal effect (%) on Poa annua, Pre-emergence application after pre-treatment (Poa annua [2]; 50 g a.i./ha, 123 DAT): 98%
Herbicidal effect (%) on Poa annua, Post-emergence application without pre-treatment (Poa annua [2]; 50 g a.i./ha, 157 DAT): 95%
Herbicidal effect (%) on Poa annua, Pre-emergence application after pre-treatment (Poa annua [2]; 50 g a.i./ha, 157 DAT): 100%
Herbicidal effect (%) on Poa annua, Post-emergence application without pre-treatment (Poa annua [2]; 50 g a.i./ha, 187 DAT): 100%
Herbicidal effect (%) on Poa annua, Pre-emergence application after pre-treatment (Poa annua [2]; 50 g a.i./ha, 187 DAT): 100%
Herbicidal effect (%) on Poa annua, Post-emergence application without pre-treatment (Poa annua [2]; 75 g a.i./ha, 123 DAT): 98%
Herbicidal effect (%) on Poa annua, Pre-emergence application after pre-treatment (Poa annua [2]; 75 g a.i./ha, 123 DAT): 100%
Herbicidal effect (%) on Poa annua, Post-emergence application without pre-treatment (Poa annua [2]; 75 g a.i./ha, 157 DAT): 100%
Herbicidal effect (%) on Poa annua, Pre-emergence application after pre-treatment (Poa annua [2]; 75 g a.i./ha, 157 DAT): 100%
Herbicidal effect (%) on Poa annua, Post-emergence application without pre-treatment (Poa annua [2]; 75 g a.i./ha, 187 DAT): 100%
Herbicidal effect (%) on Poa annua, Pre-emergence application after pre-treatment (Poa annua [2]; 75 g a.i./ha, 187 DAT): 100%
Herbicidal effect (%) 7 DAT on Taraxacum officinalis (Taraxacum officinalis): 20%
Herbicidal effect (%) on Digitaria sanguinalis (Digitaria sanguinalis; 12.5 g a.i./ha, 35 DAT): 87%
Herbicidal effect (%) on Digitaria sanguinalis (Digitaria sanguinalis; 12.5 g a.i./ha, 56 DAT): 63%
Herbicidal effect (%) on Digitaria sanguinalis (Digitaria sanguinalis; 12.5 g a.i./ha, 68 DAT): 73%
Herbicidal effect (%) on Digitaria sanguinalis (Digitaria sanguinalis; 12.5 g a.i./ha, 107 DAT): 70%
Herbicidal effect (%) on Digitaria sanguinalis (Digitaria sanguinalis; 12.5 g a.i./ha, 138 DAT): 43%
Herbicidal effect (%) on Digitaria sanguinalis (Digitaria sanguinalis; 12.5 g a.i./ha, 180 DAT): 57%
Herbicidal effect (%) on Digitaria sanguinalis (Digitaria sanguinalis; 25.0 g a.i./ha, 35 DAT): 95%
Herbicidal effect (%) on Digitaria sanguinalis (Digitaria sanguinalis; 25.0 g a.i./ha, 56 DAT): 96%
Herbicidal effect (%) on Digitaria sanguinalis (Digitaria sanguinalis; 25.0 g a.i./ha, 68 DAT): 98%
Herbicidal effect (%) on Digitaria sanguinalis (Digitaria sanguinalis; 25.0 g a.i./ha, 107 DAT): 97%
Herbicidal effect (%) on Digitaria sanguinalis (Digitaria sanguinalis; 25.0 g a.i./ha, 138 DAT): 93%
Herbicidal effect (%) on Digitaria sanguinalis (Digitaria sanguinalis; 25.0 g a.i./ha, 180 DAT): 93%
Herbicidal effect (%) on Digitaria sanguinalis (Digitaria sanguinalis; 50.0 g a.i./ha, 35 DAT): 97%
Herbicidal effect (%) on Digitaria sanguinalis (Digitaria sanguinalis; 50.0 g a.i./ha, 56 DAT): 98%
Herbicidal effect (%) on Digitaria sanguinalis (Digitaria sanguinalis; 50.0 g a.i./ha, 68 DAT): 99%
Herbicidal effect (%) on Digitaria sanguinalis (Digitaria sanguinalis; 50.0 g a.i./ha, 107 DAT): 99%
Herbicidal effect (%) on Digitaria sanguinalis (Digitaria sanguinalis; 50.0 g a.i./ha, 138 DAT): 100%
Herbicidal effect (%) on Digitaria sanguinalis (Digitaria sanguinalis; 50.0 g a.i./ha, 180 DAT): 100%
Herbicidal effect (%) on Digitaria sanguinalis (Digitaria sanguinalis; 100.0 g a.i./ha, 35 DAT): 96%
Herbicidal effect (%) on Digitaria sanguinalis (Digitaria sanguinalis; 100.0 g a.i./ha, 56 DAT): 99%
Herbicidal effect (%) on Digitaria sanguinalis (Digitaria sanguinalis; 100.0 g a.i./ha, 68 DAT): 99%
Herbicidal effect (%) on Digitaria sanguinalis (Digitaria sanguinalis; 100.0 g a.i./ha, 107 DAT): 99%
Herbicidal effect (%) on Digitaria sanguinalis (Digitaria sanguinalis; 100.0 g a.i./ha, 138 DAT): 99%
Herbicidal effect (%) on Digitaria sanguinalis (Digitaria sanguinalis; 100.0 g a.i./ha, 180 DAT): 99%
Herbicidal effect (%) on Digitaria sanguinalis (Digitaria sanguinalis; 200.0 g a.i./ha, 35 DAT): 98%
Herbicidal effect (%) on Digitaria sanguinalis (Digitaria sanguinalis; 200.0 g a.i./ha, 56 DAT): 99%
Herbicidal effect (%) on Digitaria sanguinalis (Digitaria sanguinalis; 200.0 g a.i./ha, 68 DAT): 99%
Herbicidal effect (%) on Digitaria sanguinalis (Digitaria sanguinalis; 200.0 g a.i./ha, 107 DAT): 100%
Herbicidal effect (%) on Digitaria sanguinalis (Digitaria sanguinalis; 200.0 g a.i./ha, 138 DAT): 100%
Herbicidal effect (%) on Digitaria sanguinalis (Digitaria sanguinalis; 200.0 g a.i./ha, 180 DAT): 100%
Herbicidal effect (%) on Poa annua (Poa annua [3]; 12.5 g a.i./ha): 70%
Herbicidal effect (%) on Poa annua (Poa annua [3]; 25.0 g a.i./ha): 97%
Herbicidal effect (%) on Poa annua (Poa annua [3]; 50.0 g a.i./ha): 100%
Herbicidal effect (%) on Poa annua (Poa annua [3]; 100.0 g a.i./ha): 100%
Herbicidal effect (%) on Poa annua (Poa annua [3]; 200.0 g a.i./ha): 100%

Source: patent US8426342B2, “Method for weed control in lawn” (priority 2008, dated 2013)
